Reference: patent US20160311795A1, “PYRIMIDINE DIAMINE DERIVATIVES AS INHIBITORS OF CYTOSOLIC HSP90” (CALASIA PHARMACEUTICALS, INC., priority 2012, published 2016)

Legend:
[1] = test system: Akt1 in LnCaP cells; experiment: Akt1 degradation in cell lysates, ELISA; format: cell-based; conditions: Homo sapiens, 48 h
Experimental: Tumor cell lines (LnCaP) were obtained from the Sanford Burnham Medical Research Institute (La Jolla, Calif.), LnCaP cells were cultured in culture medium (RPMI-glutamax, 10% FCS, 100 units/ml penicillin, and 100 μg/ml streptomycin). Cells were passaged after lifting using 0.25% trypsin/EDTA, and 3×10^5 cells were seeded in each well of six well plates (total volume 2.5 mL/well). After the cells were cultured for 24 h, increasing concentrations of Hsp90 inhibitor were added to wells in triplicate from DMSO-containing stock solutions and mixed by gently by stirring. Final DMSO concentration in all wells was 0.25%. The treated cells were then cultured for 48 h prior to lysate preparation. […] The protein concentration in the cell lysates was determined using the BCA protein assay kit used according to the manufacturer's recommendations. […] Two hundred μL of BCA Protein Assay Kit reagent was added and the mixtures were incubated at 37° C. for 30 min Protein concentrations were determined using a micro-titer plate reader (Model #Synergy HT; BioTek Inc., Winooski, Vt.).
Akt1 levels in the cell lysates were measured using kits from R&D Systems used according to the manufacturer's recommendations. […] Akt1 levels were determined using a micro-titer plate reader (Model #Synergy HT; BioTek Inc., Winooski, Vt.). […] Fluorescence intensities of the dilutions were measured to obtain a standard curve. […]

[2] = test system: U251MG; experiment: Cell viability / efficacy in GBM cells; format: cell-based, human
Experimental: (§1) The effect of SBI-0640725 on cell viability was determined by measuring cellular dehydrogenase activity (U251MG and MBA-MD-231 cells) or by measuring ADP levels (HepG2) after treating cells for 72 hours with increasing concentrations of SBI-0640725. To measure dehydrogenase activity, CCK-8 kit reagent (Dojindo) was added to the wells and incubated for 2 hours, after which absorbance was measured at 450 nm using a Synergy HT micro-titer plate reader (Biotek). To measure ADP levels, ADP-GLO reagent (Life Technologies) was added to the wells, and luminescence was measured after a 30 minute incubation using a POLARstar Omega micro-titer plate reader (BMG).
(§2) The table below summarizes efficacy of SBI-0640725 in various cancer cell lines, including U251MG, MDA-MB-231, and HepG2, using ADP-GLO assay described above. As used herein “efficacy” (EC50) is the concentration of a compound that produces half-maximal response in a cellular assay.

[3] = test system: HepG2; experiment: Cell viability / efficacy in liver cancer cells, ADP-GLO; format: cell-based
Experimental: as §1, §2

[4] = test system: Akt1 in U251MG cells; experiment: Hsp90 client protein stability, Akt1 ELISA; format: cell-based, human; conditions: 48 hours, increasing concentrations
Experimental: (§3) In further experiments, the effect of SBI-0640725 on the stability of Hsp90 client proteins was analyzed. […] Akt1 protein levels were measured in cell lysates using ELISA.

[5] = test system: Akt1 in MBA-MD-231 cells; experiment: Hsp90 client protein stability, Akt1 ELISA; format: cell-based; conditions: MBA-MD-231, 48 hours, increasing concentrations
Experimental: as §3

IC50 [1] [µM]	EC50 ([2]; Homo sapiens, U-251, GBM, ADP-GLO) [µM]	EC50 ([3]; Homo sapiens, Liver Cancer, HepG2, ADP-GLO) [µM]	Compound	cell viability ([2]; 72 hours, dehydrogenase activity (CCK-8))	cell viability ([3]; HepG2, 72 hours, ADP levels (ADP-GLO))	levels of the client protein Akt1 [4]	levels of the client protein Akt1 [5]
5.4	–	–	COc1c(C)cnc(CN(CCc2ccccc2)c2cc(Cl)nc(N)n2)c1C [SBI-0639353, 6-Chloro-N4-((4-methoxy-3,5-dimethylpyridin-2-yl)methyl)-N4-phenethylpyrimidine-2,4-diamine]	–	–	–	–
–	0.88	1.3	COc1c(C)cnc(CN(CCc2ccc(F)cc2)c2cc(Cl)nc(N)n2)c1C [SBI-0640725]	reduction in cell viability	reduction in cell viability	progressive decrease in the levels of the client protein Akt1	progressive decrease in the levels of the client protein Akt1
